From patent US11807625B2, “Capsid inhibitors for the prevention of HIV” (Gilead Sciences, Inc., priority 2019, dated 2023)
Several values for one entry are separate records, joined by “and”; a condition that tells them apart may be missing. Equal entries are not always repeated.

Assay: PK of compound of Formula (Ia) after single subcutaneous dose of solution formulations in Wistar Han rats
Format: in vivo
Conditions: SC 50 mg/kg; for concentration at 1 h / concentration at 3 h / concentration at 8 h: male, Wistar Han, rat, plasma, sc
Method: Formulations containing the compound of Formula (Ia), or a pharmaceutically acceptable salt thereof, were prepared as solutions and optionally administered subcutaneously or intramuscularly to rats, rabbits, and/or dogs.
A solution of about 400 mg/mL of the compound of Formula (Ia) having 19.14 w/w % water, 40.66 w/w % PEG 300, 35.20 w/w % of a sodium salt of a compound of Formula (Ia), and 5.00% ethanol was prepared. The solution was administered subcutaneously to male Wistar Han rats at a dose level of about 50 mg/kg and dose volume of 0.125 mL/kg and the pharmacokinetic (PK) profile was determined.
A solution of about 500 mg/mL of the compound of Formula (Ia) having 16.64 w/w % water, 35.36 w/w % PEG 300, 43.00 w/w % of a sodium salt of a compound of Formula (Ia), and 5.00% ethanol was prepared. The solution was administered subcutaneously to male Wistar Han rats at a dose level of about 50 mg/kg and dose volume of 0.1 mL/kg and the pharmacokinetic (PK) profile was determined.
A solution of about 400 mg/mL of the compound of Formula (Ia) having 17.00 w/w % water, 36.40 w/w % PEG 300, 35.20 w/w % of a sodium salt of a compound of Formula (Ia), 5.00 w/w % ethanol, and 6.40 w/w % poloxamer 188 was prepared. The solution was administered subcutaneously to male beagle dogs at a dose level of about 12 mg/kg and male Wistar Han rats at a dose level of about 50 mg/kg. The pharmacokinetic profiles were determined, and the results for dogs are summarized in Table and Table, while the results for rats are summarized in Table and Table below.
A solution of about 500 mg/mL of the compound of Formula (Ia) having 14.06 w/w % water, 30.12 w/w % PEG 300, […] of a sodium salt of a compound of Formula (Ia), 5.00 w/w % ethanol, and 6.40 w/w % poloxamer 188 was prepared. The solution was administered subcutaneously to male beagle dogs at a dose level of about 12 mg/kg and male Wistar Han rats at a dose level of about 50 mg/kg. The pharmacokinetic profiles were determined, and the results for dogs are summarized in Table and Table, while the results for rats are summarized in Table and Table below.
A solution of about 300 mg/mL of the compound of Formula (Ia) having 23.33 w/w % water, 48.99 w/w % PEG 300, 26.47 w/w % of a sodium salt of a compound of Formula (Ia), and 1.21 w/w % poloxamer 188 was prepared. The solution was administered subcutaneously to male beagle dogs at a dose level of about 6 mg/kg and male Wistar Han rats at a dose level of about 50 mg/kg. The pharmacokinetic profiles were determined, and the results for dogs are summarized in Table and Table, while the results for rats are summarized in Table and Table below.
A solution of about 400 mg/mL of the compound of Formula (Ia) having 18.80 w/w % water, 40.25 w/w % PEG 300, 34.38 w/w % of a sodium salt of a compound of Formula (Ia), 5.00 w/w % ethanol, and 1.57 w/w % poloxamer 188 was prepared. The solution was administered subcutaneously to male beagle dogs at a dose level of about 12 mg/kg and male Wistar Han rats at a dose level of about 50 mg/kg. The pharmacokinetic profiles were determined, and the results for dogs are summarized in Table and Table, while the results for rats are summarized in Table and Table below.
A solution of about 500 mg/mL of the compound of Formula (Ia) having 16.29 w/w % water, 34.88 w/w % PEG 300, 41.92 w/w % of a sodium salt of a compound of Formula (Ia), 5.00 w/w % ethanol, and 1.91 w/w % poloxamer 188 was prepared. The solution was administered subcutaneously to male beagle dogs at a dose level of about 12 mg/kg and male Wistar Han rats at a dose level of about 50 mg/kg. The pharmacokinetic profiles were determined, and the results for dogs are summarized in Table and Table, while the results for rats are summarized in Table and Table below.
A solution of about 400 mg/mL of the compound of Formula (Ia) having 20.90 w/w % water, 44.72 w/w % PEG 300, and 34.38 w/w % of a sodium salt of a compound of Formula (Ia) was prepared. […]

CC(C)(C#Cc1ccc(-c2ccc(Cl)c3c(NS(C)(=O)=O)nn(CC(F)(F)F)c23)c([C@H](Cc2cc(F)cc(F)c2)NC(=O)Cn2nc(C(F)(F)F)c3c2C(F)(F)[C@@H]2C[C@H]32)n1)S(C)(=O)=O [compound of Formula (Ia)]
Plasma concentration (0 h, individual rats, solution R, 400 mg/mL): BLQ | Plasma concentration (0 h, individual rats, solution S, 500 mg/mL): BLQ | Plasma concentration (0 h, individual rats, solution T, 400 mg/mL): BLQ | Plasma concentration (0 h, individual rats, solution U, 500 mg/mL): BLQ | Plasma concentration (0 h, individual rats, solution V, 300 mg/mL): BLQ | Plasma concentration (1.00 h, individual rats, solution R, 400 mg/mL, 50 mg/kg): 59.3 nM and 42.4 nM | Plasma concentration (3.00 h, individual rats, solution R, 400 mg/mL, 50 mg/kg): 164 nM and 104 nM | Plasma concentration (3.00 h, individual rats, solution S, 500 mg/mL, 50 mg/kg): 72.7 nM and 118 nM | Plasma concentration (8.00 h, individual rats, solution R, 400 mg/mL, 50 mg/kg): 131 nM and 84.1 nM | Plasma concentration (8.00 h, individual rats, solution S, 500 mg/mL, 50 mg/kg): 82.0 nM and 127 nM | Plasma concentration (24.0 h, individual rats, solution R, 400 mg/mL, 50 mg/kg): 194 nM and 125 nM | Plasma concentration (24.0 h, individual rats, solution S, 500 mg/mL, 50 mg/kg): 138 nM and 133 nM | Plasma concentration (48.0 h, individual rats, solution R, 400 mg/mL, 50 mg/kg): 162 nM and 107 nM | Plasma concentration (48.0 h, individual rats, solution S, 500 mg/mL, 50 mg/kg): 158 nM and 119 nM | Plasma concentration (72.0 h, individual rats, solution R, 400 mg/mL, 50 mg/kg): 154 nM and 123 nM | Plasma concentration (72.0 h, individual rats, solution S, 500 mg/mL, 50 mg/kg): 166 nM and 120 nM | Plasma concentration (96.0 h, individual rats, solution R, 400 mg/mL, 50 mg/kg): 162 nM and 112 nM | Plasma concentration (96.0 h, individual rats, solution S, 500 mg/mL, 50 mg/kg): 149 nM and 107 nM | Plasma concentration (168 h, individual rats, solution R, 400 mg/mL, 50 mg/kg): 166 nM and 124 nM | Plasma concentration (168 h, individual rats, solution S, 500 mg/mL, 50 mg/kg): 121 nM and 82.3 nM | Plasma concentration (336 h, individual rats, solution R, 400 mg/mL, 50 mg/kg): 275 nM and 256 nM | Plasma concentration (336 h, individual rats, solution S, 500 mg/mL, 50 mg/kg): 277 nM and 140 nM and 131 nM | Plasma concentration (504 h, individual rats, solution R, 400 mg/mL, 50 mg/kg): 319 nM and 393 nM | Plasma concentration (504 h, individual rats, solution S, 500 mg/mL, 50 mg/kg): 211 nM and 235 nM | Plasma concentration (672 h, individual rats, solution R, 400 mg/mL, 50 mg/kg): 286 nM and 442 nM | Plasma concentration (672 h, individual rats, solution S, 500 mg/mL, 50 mg/kg): 254 nM and 227 nM | Plasma concentration (840 h, individual rats, solution R, 400 mg/mL, 50 mg/kg): 313 nM and 443 nM | Plasma concentration (840 h, individual rats, solution S, 500 mg/mL, 50 mg/kg): 221 nM and 250 nM | Plasma concentration (1008 h, individual rats, solution R, 400 mg/mL, 50 mg/kg): 318 nM and 442 nM | Plasma concentration (1008 h, individual rats, solution S, 500 mg/mL, 50 mg/kg): 479 nM and 207 nM and 215 nM | Plasma concentration (1334 h, individual rats, solution R, 400 mg/mL, 50 mg/kg): 266 nM and 421 nM | Plasma concentration (1334 h, individual rats, solution S, 500 mg/mL, 50 mg/kg): 254 nM and 248 nM | Plasma concentration (1680 h, individual rats, solution R, 400 mg/mL, 50 mg/kg): 233 nM and 328 nM | Plasma concentration (1680 h, individual rats, solution S, 500 mg/mL, 50 mg/kg): 216 nM and 189 nM | Plasma concentration (2016 h, individual rats, solution R, 400 mg/mL, 50 mg/kg): 181 nM and 227 nM | Plasma concentration (2016 h, individual rats, solution S, 500 mg/mL, 50 mg/kg): 158 nM and 133 nM | Plasma concentration (2352 h, individual rats, solution R, 400 mg/mL, 50 mg/kg): 182 nM | Plasma concentration (2352 h, individual rats, solution S, 500 mg/mL, 50 mg/kg): 170 nM and 119 nM | Plasma concentration (2688 h, individual rats, solution R, 400 mg/mL, 50 mg/kg): 146 nM and 147 nM | Plasma concentration (2688 h, individual rats, solution S, 500 mg/mL, 50 mg/kg): 148 nM and 126 nM | Plasma concentration (3024 h, individual rats, solution R, 400 mg/mL, 50 mg/kg): 118 nM and 111 nM | Plasma concentration (3360 h, individual rats, solution R, 400 mg/mL, 50 mg/kg): 116 nM and 84.7 nM | Plasma concentration (3696 h, individual rats, solution R, 400 mg/mL, 50 mg/kg): 117 nM and 109 nM and 58.4 nM | Plasma concentration (4032 h, individual rats, solution R, 400 mg/mL, 50 mg/kg): 109 nM and 136 nM and 59.5 nM | Plasma concentration (4704 h, individual rats, solution R, 400 mg/mL, 50 mg/kg): 84.4 nM and 92.7 nM and 29.9 nM | Plasma concentration (5376 h, individual rats, solution R, 400 mg/mL, 50 mg/kg): 62.6 nM and 90.4 nM and 20.9 nM | Plasma concentration (6048 h, individual rats, solution R, 400 mg/mL, 50 mg/kg): 27.4 nM and 48.6 nM and 14.6 nM | Plasma concentration (6720 h, individual rats, solution R, 400 mg/mL, 50 mg/kg): 22.7 nM and 45.8 nM and 10.4 nM | Plasma concentration (7392 h, individual rats, solution R, 400 mg/mL, 50 mg/kg): 13.5 nM and 28.6 nM and 7.43 nM | Plasma concentration (8064 h, individual rats, solution R, 400 mg/mL, 50 mg/kg): 8.39 nM and 24.1 nM and 4.52 nM | concentration at 1 h (50 mg/kg, 1.00 h, individual rats, solution R, 400 mg/mL): 67.6 nM | concentration at 1 h (50 mg/kg, 1.00 h, individual rats, solution U, 500 mg/mL): 42.6 nM | concentration at 1 h (50 mg/kg, 1.00 h, individual rats, solution V, 300 mg/mL): 51.4 nM | concentration at 1 h (50 mg/kg, 1.00 h, mean, n = 3 rats, solution R, 400 mg/mL): 56.4 nM | concentration at 1 h (50 mg/kg, 1.00 h, mean, n = 3 rats, solution S, 500 mg/mL): 49.2 nM | concentration at 1 h (50 mg/kg, 1.00 h, mean, n = 3 rats, solution V, 300 mg/mL): 51.4 nM | concentration at 1 h (50 mg/kg, 1.00 h, mean, n = 5 rats, solution T, 400 mg/mL): 56.4 nM | concentration at 1 h (50 mg/kg, 1.00 h, mean, n = 5 rats, solution U, 500 mg/mL): 50.5 nM | concentration at 3 h (50 mg/kg, 3.00 h, individual rats, solution R, 400 mg/mL): 128 nM | concentration at 3 h (50 mg/kg, 3.00 h, individual rats, solution S, 500 mg/mL): 87.6 nM | concentration at 3 h (50 mg/kg, 3.00 h, individual rats, solution T, 400 mg/mL): 128 nM | concentration at 3 h (50 mg/kg, 3.00 h, individual rats, solution V, 300 mg/mL): 141 nM | concentration at 3 h (50 mg/kg, 3.00 h, mean, n = 3 rats, solution R, 400 mg/mL): 132 nM | concentration at 3 h (50 mg/kg, 3.00 h, mean, n = 3 rats, solution S, 500 mg/mL): 92.8 nM | concentration at 3 h (50 mg/kg, 3.00 h, mean, n = 3 rats, solution V, 300 mg/mL): 116 nM | concentration at 3 h (50 mg/kg, 3.00 h, mean, n = 5 rats, solution T, 400 mg/mL): 135 nM | concentration at 3 h (50 mg/kg, 3.00 h, mean, n = 5 rats, solution U, 500 mg/mL): 110 nM | concentration at 8 h (50 mg/kg, 8.00 h, individual rats, solution R, 400 mg/mL): 120 nM | concentration at 8 h (50 mg/kg, 8.00 h, individual rats, solution S, 500 mg/mL): 92 nM
